From US20130065818A1, “Arylamide Compounds And Compositions And Uses Thereof” (POLYMEDIX, priority 2006, published 2013)

Key:
[1] = Draize ocular toxicity scoring, NZW rabbit ocular toxicity model; type: in vivo; conditions: rabbit, in vivo
Method: The ocular toxicity of several concentrations of Oligomer 2, using the Draize ocular toxicity scoring system, in the NZW rabbit ocular toxicity model was carried out.
(§1) Rabbits were treated in both eyes with (37 μl) topical drops every 30 minutes for 3 hours (7 total doses). One rabbit was treated with Tris-Buffered Saline and served as a negative control. Rabbits were evaluated in a masked fashion for ocular toxicity by an ophthalmologist with specialty training in corneal and external disease. Ocular toxicity was evaluated using the Draize scoring system after treatment on Day 0 and on Day 3 post treatment for any delayed toxicity. (Draize et al., J. Pharmacol. Exp. Ther., 1944, 82, 377-390).
A brief summary of the Draize scoring system for ocular lesions is provided below
Total Maximum Score: 110 represents the sum of all scores obtained for the cornea, iris and conjunctivae.
The ocular toxicity of several formulations of Oligomer 4 with and without farnesol, using the Draize ocular toxicity scoring system, in the NZW rabbit ocular toxicity model was carried out.
as §1, with “external disease 30 minutes after the final dose.” for “external disease.”, “system (see above)” for “system”, “Day 2” for “Day 3”, “toxicity.” for “toxicity. (Draize et al., J. Pharmacol. Exp. Ther., 1944, 82, 377-390).”

[2] = system: fluoroquinolone-resistant, methicillin-resistant Staphylococcus aureus (K950); assay: NZW rabbit keratitis model, corneal colony counts; type: in vivo; conditions: for Statistical comparison of corneal colony counts (< = significantly fewer colony counts): abraded (removed) epithelium, drops every 15 min
Procedure, shortened: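 NZW rabbit corneas, with or without intact epithelia, infected with fluoroquinolone-resistant MRSA; right eyes left untreated. Topical treatments included 1%, 0.5% or 0.25% Oligomer 2 (0.25% ± 0.005% benzalkonium chloride), 0.25% Oligomer 4 ± 200 μM Farnesol, 200 μM Farnesol alone, and 5% vancomycin; read-out corneal colony counts.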

With `N=C(N)NCCCCC(=O)Nc1cc(C(F)(F)F)cc(NC(=O)c2cc(C(=O)Nc3cc(C(F)(F)F)cc(NC(=O)CCCCNC(=N)N)c3SCCN)ncn2)c1SCCN` [Oligomer 2] as the compound, how does the “I. A. Cornea opacity” value ([1]; NZW, 0 day) read?
The value was 0.

And the “I. B. Area of cornea involved” value ([1]; NZW, 0 day)?
Its value is 0.

And the “I. Tot (cornea, A × B × 5)” value ([1]; NZW, 0 day)?
Its value is 0.

And the “I. A. Cornea opacity” value ([1]; NZW, 3 day)?
The value was 0.

What about the “I. B. Area of cornea involved” value ([1]; NZW, 3 day) of the same compound?
The value was 0.

And the “I. Tot (cornea, A × B × 5)” value ([1]; NZW, 3 day)?
Its value is 0.

And the “II. A. Iris” value ([1]; NZW, 3 day)?
Its value is 0.

And the “II. Tot (iris, A × 5)” value ([1]; NZW, 3 day)?
Its value is 0.

And the “III. A. Conjunctivae redness” value ([1]; NZW, 3 day)?
The value was 0.

And the “III. B. Chemosis” value ([1]; NZW, 3 day)?
The value was 0.

What about the “III. C. Discharge” value ([1]; NZW, 3 day) of the same compound?
The value was 0.

What about the “III. Tot (conjunctivae, (A + B + C) × 2)” value ([1]; NZW, 3 day) of the same compound?
Its value is 0.

And the “Score (Draize total)” value ([1]; NZW, 3 day)?
Its value is 0.

And the “Dose dependence of ocular toxicity” value [1]?
Its value is “dose dependent ocular toxicity”.

What about the “Stinging / acute reactions upon instillation” value [1] of the same compound?
Its value is “does not sting upon instillation”.

What about the “Statistical comparison of corneal colony counts (< = significantly fewer colony counts)” value ([2]; Ker-1 (Example 9), 19 doses) of the same compound?
Its value is “effective”.

What about the “Statistical comparison of corneal colony counts (< = significantly fewer colony counts)” value ([2]; Ker-2 (Example 10), 21 doses) of the same compound?
The value was “effective”.

What about the “Effect of addition of 0.005% benzalkonium chloride (BAK) on penetration through the intact corneal epithelium” value ([2]; Ker-2, 0.25% Oligomer 2) of the same compound?
The value was “did not aid in the penetration”.

And the “Penetration of the corneal epithelium into the corneal stroma” value ([2]; in vivo)?
Its value is “does not penetrate the corneal epithelium”.
